From US20260355217A1, “HPK1 INHIBITOR, PREPARATION METHOD THEREFOR, AND USE THEREOF” (Beijing Earthwise Technology Co., Ltd., priority 2022, published 2026)
Each block holds one molecule with its values, some of them ahead of it.

Tests used:
[1] = system: human Pan T cells (IL-2 release); assay: Human Pan T Cell IL-2 ELISA; format: cell-based
Procedure: Assay Example 4 Human Pan T Cell IL-2 ELISA
A compound was dissolved in DMSO to 10 mM, and then diluted three-fold with DMSO to 9 dosages in a 96-well plate. Then, 10 μL of the diluted compound sample was transferred to a 96-well plate with 90 μL of cell culture medium, and the plate was shaken for 5 minutes. Then, 5 μL of the diluted compound sample was transferred to a 96-well plate with 120 μL of cell culture medium, and the plate was shaken for 5 minutes. According to the experimental design diagram, 50 μL of the diluted compound sample was transferred to a cell plate. Final concentrations of the compound in this assay were 10000.00, 5000, 2500, 1250, 625, 312.5, 156.25, 78.125 and 39.063 nM.
The assay was conducted in a 96-well plate. On the first day of the assay, Anti-CD3 was added to the 96-well plate and incubated in a 4 °C refrigerator overnight. On the second day of the assay, human Pan T cells were recovered, centrifuged and counted. The cell density was adjusted to 1*10^6 cells/ml. Then, 100 μL of cells were added to the 96-well plate washed with PBS and added with Anti-CD3; according to the experimental design diagram, 50 μL of diluted Anti-CD28 and 50 μL of the diluted compound were added to each well, centrifuged, and the cell plate was placed and incubated in an incubator for 48 hours; after 48 hours, the plate was centrifuged and the supernatant was collected for IL-2 ELISA.
The signal value of light absorption was converted into a multiple. Multiple=sample value/the average value of control wells. The average value of control wells refers to the value measured in wells with DMSO added. EC50 values were calculated by XLFit (version 5.3.1.3) in Excel. Equation: Y=Bottom+(Top−Bottom)/(1+(EC50/X)^HillSlope).

[2] = biological target: T1, pSLP76 (Phospho-SLP-76 (Ser376)), Jurkat E6-1 cells (Homo sapiens, UniProt Q92918); assay: Phospho-SLP-76 (Ser376) HTRF Assay in Jurkat E6-1 cells; format: cell-based; conditions: compound 4 hours, then anti-CD3 20 minutes
T1 construct: read-out phospho-SLP-76 (Ser376) HTRF
T1 sequence (Q92918 whole entry): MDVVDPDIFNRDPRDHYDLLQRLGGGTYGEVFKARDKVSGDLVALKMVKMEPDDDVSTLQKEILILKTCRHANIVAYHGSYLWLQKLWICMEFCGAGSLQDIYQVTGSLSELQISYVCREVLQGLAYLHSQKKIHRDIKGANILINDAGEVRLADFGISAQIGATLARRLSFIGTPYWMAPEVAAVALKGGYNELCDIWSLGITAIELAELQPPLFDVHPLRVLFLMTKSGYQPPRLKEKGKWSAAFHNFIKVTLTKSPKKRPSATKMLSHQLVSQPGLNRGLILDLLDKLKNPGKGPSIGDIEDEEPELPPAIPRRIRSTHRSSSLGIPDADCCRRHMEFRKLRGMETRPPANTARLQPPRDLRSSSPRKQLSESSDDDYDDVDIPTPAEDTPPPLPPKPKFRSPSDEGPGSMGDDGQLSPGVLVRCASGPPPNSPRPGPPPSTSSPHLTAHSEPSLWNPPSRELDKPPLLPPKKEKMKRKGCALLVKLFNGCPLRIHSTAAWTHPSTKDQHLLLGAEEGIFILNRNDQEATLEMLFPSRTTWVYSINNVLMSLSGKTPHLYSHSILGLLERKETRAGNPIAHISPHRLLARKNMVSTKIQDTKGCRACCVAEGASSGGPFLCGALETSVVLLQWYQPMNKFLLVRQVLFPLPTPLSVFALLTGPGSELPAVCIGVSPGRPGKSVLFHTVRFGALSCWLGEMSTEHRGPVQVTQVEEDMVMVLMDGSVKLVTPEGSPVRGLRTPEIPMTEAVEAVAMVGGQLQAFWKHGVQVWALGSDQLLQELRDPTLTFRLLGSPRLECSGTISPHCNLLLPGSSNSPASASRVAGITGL
Procedure: Assay Example 3 Phospho-SLP-76 (Ser376) HTRF Assay
A compound was dissolved in DMSO to 10 mM, and then diluted three-fold with DMSO to 10 dosages in a 96-well plate. Then, 3 μL of the diluted compound sample was transferred to a 96-well plate with 97 μL of cell culture medium, and the plate was shaken for 5 minutes. According to the experimental design diagram, 7.5 μL of the diluted compound sample was transferred to a cell plate. Final concentrations of the compound in this assay were 10000.00, 3333.33, 1111.11, 370.37, 123.46, 41.15, 13.72, 4.57, 1.52 and 0.51 nM.
In this assay, the density of Jurkat E6-1 cells was maintained between 3*10^5 to 3*10^6 cells/mL. The cell culture was replaced with fresh culture medium every 2 to 3 days (depending on the cell density). 30 μL of Jurkat E6-1 (300,000 cells) was added to a 96-well plate and incubated in a 37 °C incubator for 1 hour. Then, according to the experimental design diagram, compounds (6×, 7.5 μL) were added to treat the cells for 4 hours, respectively. After 4 hours, purified anti-human anti-CD3 antibodies (6×, 7.5 μL) were added to treat the cells for 20 minutes. After 20 minutes, 15 μL of cell lysis buffer (4×) was added, and the cells were lysed at 25 °C with shaking (250 rpm) for 1 hour. Then, according to the experimental design diagram, 16 μL of cell lysate was transferred to a 384-well plate using a pipette. After the transfer, 4 μL of antibody detection mixture was added. After being placed at room temperature overnight, the plate was read by EnVision multi-function microplate reader to read the FRET signal (the ratio of HTRF 665/615 was calculated from the readings at 665 nm and 615 nm).
The ratio of the signal at 665 nm to the signal at 615 nm was converted to the percentage of inhibition. Inhibition %=(maximum value−sample value)/(maximum value−minimum value)×100. The minimum value refers to the signal value of a well without anti-CD3 antibody stimulation during the treatment of cells, and the maximum value refers to the signal value of a well with anti-CD3 antibody stimulation but without the compound during the treatment of cells. IC50 values were calculated by XLFit (version 5.3.1.3) in excel. Equation: Y=Bottom+(Top−Bottom)/(1+(IC50/X)^HillSlope).

[3] = Homo sapiens, T-cell, 48 h, Anti-CD3/Anti-CD28, IL-2 ELISA
[4] = Homo sapiens, T-cell, 48 h, Anti-CD3/Anti-CD28 stimulation, IL-2 ELISA of supernatant
[5] = Anti-CD3/Anti-CD28 stimulation, 48 hours, IL-2 ELISA of supernatant
[6] = Anti-CD3/Anti-CD28, 48 hours, IL-2 ELISA

EC50 [1, 3]: 0.00484 µM
SMILES: CC1(C)c2cc(N3CCO[C@H](C(C)(C)O)C3)ccc2Nc2c1cc(-c1cnc3cc(F)ccn13)c1c2C(=O)NC1 (single isomer, unassigned) [Example 94]

EC50 [1, 4]: 0.015 µM
SMILES: CO[C@H]1CCn2c(-c3cc4c(c5c3CNC5=O)Nc3ccc(N5CCO[C@@H](C(C)(C)O)C5)cc3C4(C)C)cnc2C1 (single isomer, unassigned) [Example 166]

IC50 [2]: 0.0588 µM
SMILES: COc1ccnn2c(-c3cc4c(c5c3CNC5=O)Nc3ccc(N5CCOCC5)cc3C4(C)C)cnc12 [Example 31]

IC50 [2]: 0.0259 µM
SMILES: CC1(C)c2cc(N3CCOCC3)ccc2Nc2c1cc(-c1cnc3cccnn13)c1c2C(=O)NC1 [Example 12]

SMILES: CC1(C)c2cc(N3CCOCC3)ccc2Nc2c1cc(-c1cnc3c(Cl)cccn13)c1cc[nH]c(=O)c21 [Example 1]
EC50 [1, 3]: 0.00367 µM
IC50 [2]: 0.121 µM

SMILES: COc1cccn2c(-c3cc4c(c5c3CNC5=O)Nc3ccc(N5CCOCC5)cc3C4(C)C)cnc12 [Example 10]
EC50 [1, 3]: 0.00488 µM
IC50 [2]: 0.0427 µM

SMILES: CC[C@@]1(C)c2cc(N3CCOCC3)ccc2Nc2c1cc(-c1cnc3n1CCC[C@@H]3OC)c1c2C(=O)NC1 (single isomer, unassigned) [Example 168]
EC50 [1, 5]: 0.017 µM

SMILES: COc1ccnc2c(-c3cc4c(c5c3CNC5=O)Nc3ccc(N5CCOCC5)cc3C4(C)C)cnn12 [Example 66]
EC50 [1, 3]: 0.00783 µM

EC50 [1, 4]: 0.027 µM
SMILES: CO[C@H]1CCCn2c(-c3cc4c(c5c3CNC5=O)Nc3ccc(N5CC6CCC(C5)O6)cc3C4(C)C)cnc21 [Example 196]

IC50 [2]: 0.0733 µM
SMILES: Cc1ccn2c(-c3cc4c(c5c3CNC5=O)Nc3ccc(N5CCOCC5)cc3C4(C)C)cnc2c1F [Example 11]

EC50 [1, 6]: 0.0101 µM
SMILES: COC1CCCn2c(-c3cc4c(c5c3CNC5=O)Nc3ccc(N5CCOC(C(C)(C)O)C5)cc3C4(C)C)cnc21 (single isomer, unassigned) [Example 132]

IC50 [2]: 0.0575 µM
SMILES: COc1cccn2c(-c3cc4c(c5c(=O)[nH]ccc35)Nc3ccc(N5CCOCC5)cc3C4(C)C)cnc12 [Example 3]

EC50 [1, 3]: 0.0119 µM
SMILES: Cc1ccn2c(-c3cc4c(c5c3CNC5=O)Nc3ccc(N5CCO[C@H](C(C)(C)O)C5)cc3C4(C)C)cnc2c1 (stereo in doubt) [Example 107]

IC50 [2]: 0.487 µM
SMILES: Cc1ccc2c(-c3cc4c(c5c(=O)[nH]ccc35)Nc3ccc(N5CCOC(C(C)(C)O)C5)cc3C4(C)C)cnn2c1 (stereo not shown) [Example 7]

IC50 [2]: 0.0836 µM
SMILES: COc1cccn2c(-c3cc4c(c5c3CNC5=O)Nc3ccc(N5CCOCC5)nc3C4(C)C)cnc12 [Example 20]

EC50 [1, 4]: 0.031 µM
SMILES: CO[C@@H]1CCn2c(-c3cc4c(c5c3CNC5=O)Nc3ccc(N5CCO[C@@H](C(C)(C)O)C5)cc3C4(C)C)cnc2C1 (single isomer, unassigned) [Example 176]

IC50 [2]: 0.037 µM
SMILES: COc1cccc2c(-c3cc4c(c5c3CNC5=O)Nc3ncc(N5CCOCC5)cc3C4(C)C)cnn12 [Example 21]

IC50 [2]: 0.197 µM
SMILES: COc1cccn2c(-c3cc4c(c5c3CNC5=O)Nc3cnc(N5CCOCC5)cc3C4(C)C)cnc12 [Example 14]

EC50 [1, 3]: 0.00596 µM
SMILES: CO[C@@H]1CCCn2c(-c3cc4c(c5c3CNC5=O)Nc3ccc(N5CCOCC5)cc3C4(C)C)cnc21 (single isomer, unassigned) [Example 91]

EC50 [1, 4]: 0.098 µM
SMILES: CC1(C)c2cc(N3CCOCC3)ccc2Nc2c1cc(-c1cnc3n1CCC[C@@H]3OC1COC1)c1c2C(=O)NC1 (single isomer, unassigned) [Example 221]

IC50 [2]: 0.066 µM
SMILES: COc1cccc2c(-c3cc4c(c5c3CNC5=O)Nc3ccc(N5CCOCC5)cc3C4(C)C)cnn12 [Example 18]

IC50 [2]: 0.0135 µM
SMILES: Cn1ccn2c(-c3cc4c(c5c3CNC5=O)Nc3ccc(N5CCOCC5)cc3C4(C)C)cnc2c1=O [Example 41]

EC50 [1, 3]: 0.00591 µM
SMILES: Cc1ccc2c(-c3cc4c(c5c3CNC5=O)Nc3ccc(N5CCO[C@H](C(C)(C)O)C5)cc3C4(C)C)cnn2c1 (single isomer, unassigned) [Example 96]

EC50 [1, 3]: 0.00664 µM
SMILES: Cc1ccn2c(-c3cc4c(c5c3CNC5=O)Nc3ccc(N5CCO[C@H](C(C)(C)O)C5)cc3C4(C)C)cnc2c1F (single isomer, unassigned) [Example 89]

IC50 [2]: 0.064 µM
SMILES: COc1cccn2c(-c3cc4c(c5c(=O)[nH]ccc35)Nc3ccc(N5CCOC(C(C)(C)O)C5)cc3C4(C)C)cnc12 (stereo not shown) [Example 2]

IC50 [2]: 0.103 µM
SMILES: COc1cccc2c(-c3cc4c(c5c(=O)[nH]ccc35)Nc3ccc(N5CCOCC5)cc3C4(C)C)cnn12 [Example 8]

EC50 [1, 3]: 0.0268 µM
SMILES: CCO[C@@H]1CCCn2c(-c3cc4c(c5c3CNC5=O)Nc3ccc(N5CCOCC5)cc3C4(C)C)cnc21 (single isomer, unassigned) [Example 137]

IC50 [2]: 0.164 µM
SMILES: Cc1ccn2c(-c3cc4c(c5c(=O)[nH]ccc35)Nc3ccc(N5CCOC(C(C)(C)O)C5)cc3C4(C)C)cnc2c1F (stereo not shown) [Example 6]

IC50 [2]: 0.0569 µM
SMILES: CC1(C)c2cc(N3CCOCC3)ccc2Nc2c1cc(-c1cnn3c(C#N)cccc13)c1c2C(=O)NC1 [Example 17]

SMILES: Cc1ccnn2c(-c3cc4c(c5c3CNC5=O)Nc3ccc(N5CCOC(C(C)(C)O)C5)cc3C4(C)C)cnc12 (stereo not shown) [Example 33]
EC50 [1, 3]: 0.00495 µM

EC50 [1, 4]: 0.015 µM
SMILES: CO[C@H]1CCCn2c(-c3cc4c(c5c3CNC5=O)Nc3ccc(N5CC6CCC5CO6)cc3C4(C)C)cnc21 (stereo in doubt) [Example 204]

IC50 [2]: 0.0381 µM
SMILES: CC1(C)c2cc(N3CCOCC3)ccc2Nc2c1cc(-c1cnn3cccnc13)c1cc[nH]c(=O)c21 [Example 4]

IC50 [2]: 0.0578 µM
SMILES: Cc1ccn2c(-c3cc4c(c5c3CNC5=O)Nc3ccc(N5CCOC(C(C)(C)O)C5)cc3C4(C)C)cnc2c1F (stereo not shown) [Example 9]

EC50 [1, 6]: 0.0334 µM
SMILES: COC1CCCn2c(-c3cc4c(c5c3CNC5=O)Nc3ccc(N5CCOCC5)nc3C4(C)C)cnc21 (single isomer, unassigned) [Example 25]

EC50 [1, 6]: 0.0183 µM
SMILES: Cc1ccn2c(-c3cc4c(c5c3CNC5=O)Nc3ccc(N5CCOC(C(C)(C)O)C5)cc3C4(C)C)cnc2c1 (single isomer, unassigned) [Example 106]

EC50 [1, 5]: 0.027 µM
SMILES: COC1CCCn2c(-c3cc4c(c5c3CNC5=O)Nc3ccc(N5CCOCC5C)cc3C4(C)C)cnc21 (single isomer, unassigned) [Example 180]

IC50 [2]: 0.0316 µM
SMILES: CC1(C)c2cc(N3CCOCC3)ccc2Nc2c1cc(-c1cnn3cccnc13)c1c2C(=O)NC1 [Example 16]

EC50 [1, 6]: 0.00395 µM
IC50 [2]: 0.0722 µM
SMILES: COc1cccc2c(-c3nc4c(c5c3CCNC5=O)Nc3ccc(N5CCOCC5)cc3C4(C)C)cnn12 [Example 15]

EC50 [1, 5]: 0.026 µM
SMILES: COC1CCCn2c(-c3cc4c(c5c3CNC5=O)Nc3ccc(N5CCOCC5C)cc3C4(C)C)cnc21 (single isomer, unassigned) [Example 181]

SMILES: CC[C@@]1(C)c2cc(N3CCOCC3)ccc2Nc2c1cc(-c1cnc3n1CCC[C@@H]3OC)c1c2C(=O)NC1 (single isomer, unassigned) [Example 167]
EC50 [1, 5]: 0.038 µM
